Test results published in patent publication US20060229236A1, “Cyclic tetrapeptide compound and use thereof” (FUJISAWA PHARMACEUTICAL Co. LTD., priority 2001, published 2006).
Square brackets hold non-standard residues; d marks the D form. Peptide text beside a SMILES is read from it. Aoda(9S-OH) = C[C@H](O)C(=O)CCCCC[C@H](N)C(=O)O; Phe(4-CN) = N#Cc1ccc(C[C@H](N)C(=O)O)cc1; Iva = CC[C@](C)(N)C(=O)O

What was measured:
[1] = test system: splenic cells of Lewis rats; assay: Test 2: Determination of T-cell growth inhibitor activity (T lymphocyte blastogenesis test); type: cell-based; settings: Lewis rat splenic cells, Concanavalin A (1 μg/ml), 72 hours, AlamarBlue Assay, read-out: Test 2: T-cell growth inhibitory activity IC50
Method: Test 2: Determination of T-Cell Growth Inhibitor Activity
The T lymphocyte blastogenesis test was performed in microtiter plates with each well containing 1.5×10^5 splenic cells of Lewis rats in 0.1 ml RPMI-1640 medium supplemented with 10% fetal bovine serum (FBS), […] 2-mercaptoethanol, penicilln (100 units/ml) and streptomycin (100 μg/ml), to which Concanavalin A (1 μg/ml) was added. The cells were incubated at 37° C. in a humidified atmosphere of 5% CO2 for 72 hours. After the culture period, suppressive activities of the test compounds in T lymphocyte blastogenesis were quantified by AlamarBlue (trademark) Assay. The test samples were dissolved in DMSO and further diluted with RPMI-1640 medium and added to the culture. The activities of the test compounds were expressed as IC50.

[2] = target: T1, human histone deacetylase; assay: Test 1: Determination of histone deacetylase inhibitor activity; type: biochemical; settings: partially purified human histone deacetylase from Jurkat cells; [3H] acetyl-labeled histones; 25° C., 30 minutes; read-out: Test 1: HDAC inhibitory activity IC50
T1 construct: The human histone deacetylase was partially purified from human T cell leukemia Jurkat cells
Method: Test 1: Determination of Histone Deacetylase Inhibitor Activity
The partial purification of human histone deacetylase, the preparation of [^3H] acetyl histones, and the assay for histone deacetylase activity were performed basically according to the method as proposed by Yoshida et al. as follows.
Partial Purification of Human Histone Deacetylase
The human histone deacetylase was partially purified from human T cell leukemia Jurkat cells. Jurkat cells (5×10^8 cells) were suspended in 40 ml of the HDA buffer consisting of 15 mM potassium phosphate, pH 7.5, 5% glycerol and 0.2 mM EDTA. After homogenization, nuclei were collected by centrifugation (35,000×g, 10 min) and homogenized in 20 ml of the same buffer supplemented with 1 M (NH4)2SO4. The viscous homogenate was sonicated and clarified by centrifugation (35,000×g, 10 min), and the deacetylase was precipitated by raising the concentration of (NH4)2SO4 to 3.5 M. The precipitated protein was dissolved in 10 ml of the HDA buffer and dialyzed against 4 liters of the same buffer. The dialyzate was then loaded onto a DEAE-cellulose (Whatman DE52) column (25×85 mm) equilibrated with the same buffer and eluted with 300 ml of a linear gradient (0-0.6 M) of NaCl. A single peak of histone deacetylase activity appeared between 0.3 and 0.4 M NaCl.
Preparation of [^3H] Acetyl Histone
To obtain [^3H] acetyl-labeled histone as the substrate for the histone deacetylase assay, 1×10^8 cells of Jurkat in 20 ml of RPMI-1640 medium (supplemented with 10% FBS, penicillin (50 units/ml) and streptomycin (50 μg/ml)) were incubated with 300 MBq [^3H] sodium acetate in the presence of 5 mM sodium butyrate for 30 minutes in 5% CO2-95% air atmosphere at 37° C. in a 75 cm^2 flask, harvested into a centrifuge tube (50 ml), collected by centrifugation at 1000 rpm for 10 minutes, and washed once with phosphate-buffered saline. The washed cells were suspended in 15 ml of ice-cold lysis buffer (10 mM Tris-HCl, 50 mM sodium bisulfite, 1% Triton X-100, 10 mM MgCl2, 8.6% sucrose, pH 6.5). After Dounce homogenization (30 stroke), the nuclei were collected by centrifugation at 1000 rpm for 10 minutes, washed 3 times with 15 ml of the lysis buffer, and once with 15 ml of ice-cooled washing buffer (10 mM Tris-HCl, 13 mM EDTA, pH 7.4) successively. The pellet was suspended in 6 ml of ice-cooled water using a mixer, and 68 μl of H2SO4 was added to the suspension to give a concentration of 0.4 N. After incubation at 4° C. for 1 hour, the suspension was centrifuged for 5 minutes at 15,000 rpm, and the supernatant was taken and mixed with 60 ml of acetone. After overnight incubation at −20° C., the coagulated material was collected by microcentrifugation, air-dried, and stored at −80° C.
Assay for Histone Deacetylase Activity
For the standard assay, 10 μl of [^3H] acetyl-labeled histones were added to 90 μl of the enzyme fraction, and the mixture was incubated at 25° C. for 30 minutes. The reaction was stopped by addition of 10 μl of HCl. The released [^3H] acetic acid was extracted with 1 ml of ethyl acetate, and 0.9 ml of the solvent layer was taken into 10 ml of toluene scintillation solution for determination of radioactivity.

[3] = test system: MCP-1 production by activated THP-1 cells; assay: Test 4: MCP-1 production by activated THP-1 cells (MCP-1 ELISA); type: cell-based, human; settings: PMA 50 ng/mL 16 hours, compound 9 hr, at doses up to 1 nM, FIG. 3
Method: Test 4: Effect of HDAC Inhibitor on MCP-1 Production by Activated THP-1 Cells For the measurement of MCP-1 level by ELISA, 1×10^6 THP-1 cells (JCRB0112, JCRB) were plated in 6-well tissue culture plates. The cells were cultured in RPMI1640 (SIGMA) supplemented with 10% FBS (MOREGATE) in the presence of PMA (SIGMA, 50 ng/mL) for 16 hours at 37° C., 5% CO2. After incubation, the medium was changed to RPMI1640 supplemented with 2% FBS and various concentrations of Compound E138 or FK506 were added. The cells were further cultured for 9 hr and the amount of MCP-1 protein secreted by activated THP-1 cells into the medium was determined by […] Immuno assay System human MCP-1 (Genzyme Techne) according to the manufacturer's instructions.

[4] = test system: IL-2 mRNA expression in activated Jurkat cells; assay: IL-2 mRNA expression in activated Jurkat cells; type: cell-based, human; settings: at 1 nM
[5] = test system: TNFα induced NF-κB activation; assay: Test 3: NF-κB reporter gene assay in TNFα-stimulated HEL cells; type: cell-based; settings: HEL cells transfected with pNFκB-TA-Luc, TNFα (10 ng/ml); at doses up to 3 nM; FIG. 2
Method: Test 3: Effect of HDAC Inhibitor on TNFα Induced NF-κB Activation 8.75×10^6 HEL cells (JCRB0062, JCRB) were transfected with 10 μg of pNFκB-TA-Luc (Clontech, as shown in FIG. 1) by electroporation at 1750 V and 10 μF with Gene Pulser II (BIO-RAD). The cells were resuspended in 2 ml of RPMI1640 (SIGMA) supplemented with 10% FBS (MOREGATE) and aliquated 50 μl each well in 96-well tissue culture plates. After 5 hr culture at 37° C., 5% CO2, for cell function recovery, the cells were cultured in the presence or absence of TNFα (10 ng/ml) for 4 hr. TNFα stimulated cells were incubated with Compound E138 or FK506 (commercial available immunosuppresive agent, also referred as Tacrolimus) at appropriate concentrations for 1 hour prior to stimulation. For the NF-κB reporter gene assay, the transfected cells were lysed and assayed for luciferase activity with the Bright-glo Luciferase Assay System (Promega) according to the manufacturer's instructions.

SMILES: CC[C@]1(C)NC(=O)[C@H](CCCCCC(=O)[C@@H](C)O)NC(=O)[C@H]2CCCN2C(=O)[C@H](Cc2ccccc2F)NC1=O [Compound E33]
- IC50 [1]: < 50 nM
- IC50 [2]: < 100 nM

SMILES: CC[C@]1(C)NC(=O)[C@H](CCCCCC(=O)[C@@H](C)O)NC(=O)[C@H]2CCCN2C(=O)[C@H](Cc2ccc(OCc3ccccc3)cc2)NC1=O [Compound E6]
- IC50 [1]: < 50 nM
- IC50 [2]: < 100 nM

SMILES: CC[C@]1(C)NC(=O)[C@H](CCCCCC(=O)[C@H](C)O)NC(=O)[C@H]2CCCN2C(=O)[C@H](Cc2ccc(C#N)cc2)NC1=O [Compound E23] (cyclo([Iva][Phe(4-CN)][dP][Aoda(9S-OH)]))
- IC50 [1]: < 50 nM
- IC50 [2]: < 100 nM

SMILES: CC[C@@H](O)C(=O)CCCCC[C@@H]1NC(=O)[C@H]2CCCN2C(=O)[C@H](Cc2ccccc2F)NC(=O)[C@](C)(CC)NC1=O [Compound E35]
- IC50 [1]: < 50 nM
- IC50 [2]: < 100 nM

SMILES: C=CC[C@@H]1/C=C(\C)C[C@H](C)C[C@H](OC)[C@H]2O[C@@](O)(C(=O)C(=O)N3CCCC[C@H]3C(=O)O[C@H](/C(C)=C/[C@@H]3CC[C@@H](O)[C@H](OC)C3)[C@H](C)[C@@H](O)CC1=O)[C@H](C)C[C@@H]2OC [FK506, Tacrolimus]
- effect on MCP-1 production by activated THP-1 cells [3]: no direct effect
- inhibition of IL-2 mRNA expression [4]: almost completely inhibits
- effect on TNFα induced NF-κB activation [5]: no direct effect

SMILES: CCC1(CC)NC(=O)[C@H](CCCCCC(=O)[C@@H](C)O)NC(=O)[C@H]2CCCN2C(=O)[C@H](Cc2ccccc2)NC1=O [Compound E41]
- IC50 [1]: < 50 nM
- IC50 [2]: < 100 nM

SMILES: CC[C@]1(C)NC(=O)[C@H](CCCCCC(=O)[C@@H](C)O)NC(=O)[C@H]2CCCN2C(=O)[C@H](Cc2ccc(OC)cc2)NC1=O [Compound E13]
- IC50 [1]: < 50 nM
- IC50 [2]: < 100 nM

SMILES: CC[C@]1(C)NC(=O)[C@H](CCCCCC(=O)[C@@H](C)O)NC(=O)[C@H]2CCCN2C(=O)[C@H](Cc2ccc(F)cc2)NC1=O [Compound E17]
- IC50 [1]: < 50 nM
- IC50 [2]: < 100 nM

SMILES: CC[C@@H](O)C(=O)/C=C/CCC[C@@H]1NC(=O)[C@H]2CCCN2C(=O)[C@H](Cc2ccccc2)NC(=O)[C@](C)(CC)NC1=O [Compound E48]
- IC50 [1]: < 50 nM
- IC50 [2]: < 100 nM

SMILES: CC[C@]1(C)NC(=O)[C@H](CCCCCC(=O)[C@@H](C)O)NC(=O)[C@H]2CCCN2C(=O)[C@H](Cc2ccc(Cl)cc2)NC1=O [Compound E38]
- IC50 [1]: < 50 nM
- IC50 [2]: < 100 nM

SMILES: CC[C@]1(C)NC(=O)[C@H](CCCCCC(=O)[C@@H](C)O)NC(=O)[C@H]2CCCN2C(=O)[C@H](Cc2ccc(O)cc2)NC1=O [Compound E8]
- IC50 [1]: < 50 nM
- IC50 [2]: < 100 nM

SMILES: CCOc1ccc(C[C@@H]2NC(=O)[C@](C)(CC)NC(=O)[C@H](CCCCCC(=O)[C@@H](C)O)NC(=O)[C@H]3CCCN3C2=O)cc1 [Compound E26]
- IC50 [1]: < 50 nM
- IC50 [2]: < 100 nM
